Measured values taken from ChEMBL document CHEMBL4339244, “Clavariopsins C-I, Antifungal Cyclic Depsipeptides from the Aquatic Hyphomycete Clavariopsis aquatica” (J Nat Prod, 2019).
Activity calls are given as the source filed them. No cut-off for these calls is given here.

Assays:
[1] = tested on: Pyricularia oryzae; assay: Antifungal activity against Magnaporthe oryzae assessed as inhibition of microbial growth by measuring minimum inhibitory dose per disc inducing visually distinct inhibition zone between the paper disk and colony front by paper disk based assay; format: functional, organism-based
[2] = tested on: Colletotrichum orbiculare; assay: Antifungal activity against Colletotrichum orbiculare assessed as inhibition of microbial growth by measuring minimum inhibitory dose per disc inducing visually distinct inhibition zone between the paper disk and colony front by paper disk based assay; format: functional, organism-based
[3] = tested on: Aspergillus niger; assay: Antifungal activity against Aspergillus niger assessed as inhibition of microbial growth by measuring minimum inhibitory dose per disc inducing visually distinct inhibition zone between the paper disk and colony front by paper disk based assay; format: functional, organism-based
[4] = tested on: Botrytis cinerea; assay: Antifungal activity against Botrytis cinerea assessed as inhibition of microbial growth by measuring minimum inhibitory dose per disc inducing visually distinct inhibition zone between the paper disk and colony front by paper disk based assay; format: functional
[5] = tested on: Alternaria alternata; assay: Antifungal activity against Alternaria alternata assessed as inhibition of microbial growth by measuring minimum inhibitory dose per disc inducing visually distinct inhibition zone between the paper disk and colony front by paper disk based assay; format: functional
[6] = tested on: Fusarium oxysporum; assay: Antifungal activity against Fusarium oxysporum assessed as inhibition of microbial growth by measuring minimum inhibitory dose per disc inducing visually distinct inhibition zone between the paper disk and colony front by paper disk based assay; format: functional, organism-based
[7] = tested on: Aspergillus niger; assay: Induction of hyphal malformation in Aspergillus niger assessed as minimum effective dose per disc results in obvious morphological changes incubated for 16 hrs by phase contrast microscopy; format: functional
[8] = tested on: HeLa S3; assay: Cytotoxicity in human HeLaS3 cells assessed as reduction in cell viability incubated for 48 hrs by MTT assay; format: functional, cell-based; conditions: HeLa S3, 48 h

Structure (SMILES) | inhibition [1] | inhibition [2] | inhibition [3] | MID [4] | MID [5] | inhibition [6] | MED [7] | IC50 [8]
CC[C@H](C)[C@H]1C(=O)NCC(=O)N(C)[C@@H](C(C)C)C(=O)N[C@@H](Cc2ccc(OC)cc2)C(=O)O[C@H](C(C)C)C(=O)N2CCCC[C@H]2C(=O)N[C@@H](C(C)C)C(=O)N[C@@H](C(C)C)C(=O)N(C)[C@@H](CC(=O)O)C(=O)N(C)[C@@H]([C@@H](C)CC)C(=O)N1C | Active | Active | Active | 0.01 to 0.3 µg | 0.03 to 0.3 µg | Active | 3 µg | > 10 µM
CC[C@H](C)[C@@H]1NC(=O)[C@H]([C@@H](C)CC)N(C)C(=O)[C@H](CC(=O)O)N(C)C(=O)[C@H](C(C)C)NC(=O)[C@H](C(C)C)N(C)C(=O)[C@@H]2CCCCN2C(=O)[C@@H](C(C)C)OC(=O)[C@H](Cc2ccc(OC)cc2)NC(=O)[C@H](C(C)C)N(C)C(=O)CNC1=O | Active | Active | Active | 0.01 to 0.3 µg | 0.01 µg | Active | 0.3 µg | > 10 µM
CC[C@H](C)[C@H]1C(=O)NCC(=O)N(C)[C@@H](C(C)C)C(=O)N[C@@H](Cc2ccc(OC)cc2)C(=O)O[C@H](C(C)C)C(=O)N2CCCC[C@H]2C(=O)N(C)[C@@H](C(C)C)C(=O)N[C@@H](C(C)C)C(=O)N(C)[C@@H](CC(=O)O)C(=O)N(C)[C@@H](C(C)C)C(=O)N1C | Active | Active | Active | 0.01 to 0.3 µg | 0.01 µg | Active | 0.3 µg | > 10 µM
CC[C@H](C)[C@H]1C(=O)NCC(=O)N(C)[C@@H](C(C)C)C(=O)N[C@@H](Cc2ccc(OC)cc2)C(=O)O[C@H](C(C)C)C(=O)N2CCCC[C@H]2C(=O)N(C)[C@@H](C(C)C)C(=O)N[C@@H](CC(C)C)C(=O)N(C)[C@@H](CC(=O)O)C(=O)N(C)[C@@H]([C@@H](C)CC)C(=O)N1C | Active | Active | Active | 0.01 to 0.3 µg | 0.03 to 0.3 µg | Active | 3 µg | > 10 µM
CC[C@H](C)[C@H]1C(=O)N(C)[C@@H](CC(C)C)C(=O)NCC(=O)N(C)[C@@H](C(C)C)C(=O)N[C@@H](Cc2ccc(OC)cc2)C(=O)O[C@H](C(C)C)C(=O)N2CCCC[C@H]2C(=O)N(C)[C@@H](C(C)C)C(=O)N[C@@H](C(C)C)C(=O)N(C)[C@@H](CC(=O)O)C(=O)N1C | Active | Active | Active | 0.01 to 0.3 µg | 0.03 to 0.3 µg | Active | 0.3 µg | > 10 µM
CC[C@H](C)[C@H]1C(=O)NCC(=O)N(C)[C@@H](C(C)C)C(=O)N[C@@H](Cc2ccc(OC)cc2)C(=O)O[C@H](C(C)C)C(=O)N2CCCC[C@H]2C(=O)N(C)[C@@H](C(C)C)C(=O)N[C@@H](C(C)C)C(=O)N(C)[C@@H](CC(=O)O)C(=O)N(C)[C@@H](CC(C)C)C(=O)N1C | Active | Active | Active | 0.01 to 0.3 µg | 0.03 to 0.3 µg | Active | 0.3 µg | > 10 µM
CC[C@H](C)[C@H]1C(=O)NCC(=O)N(C)[C@@H](C(C)C)C(=O)N[C@@H](Cc2ccc(OC)cc2)C(=O)O[C@H](C(C)C)C(=O)N2CCC[C@H]2C(=O)N(C)[C@@H](C(C)C)C(=O)N[C@@H](C(C)C)C(=O)N(C)[C@@H](CC(=O)O)C(=O)N(C)[C@@H]([C@@H](C)CC)C(=O)N1C | Active | Active | Active | 0.01 to 0.3 µg | 0.03 to 0.3 µg | Active | 0.3 µg | > 10 µM
CC[C@H](C)[C@H]1C(=O)N(C)[C@@H](C(C)C)C(=O)NCC(=O)N(C)[C@@H](C(C)C)C(=O)N[C@@H](Cc2ccc(OC)cc2)C(=O)O[C@H](C(C)C)C(=O)N2CCCC[C@H]2C(=O)N(C)[C@@H](C(C)C)C(=O)N[C@@H](C(C)C)C(=O)N(C)[C@@H](CC(=O)O)C(=O)N1C | Active | Active | Active | 0.01 to 0.3 µg | 0.03 to 0.3 µg | Active | 0.3 µg | > 10 µM
CC[C@H](C)[C@H]1C(=O)NCC(=O)N(C)[C@@H](C(C)C)C(=O)N[C@@H](Cc2ccc(OC)cc2)C(=O)O[C@H](C(C)C)C(=O)N2CCCC[C@H]2C(=O)N(C)[C@@H](C(C)C)C(=O)N[C@@H](C(C)C)C(=O)N(C)[C@@H](CC(=O)O)C(=O)N(C)[C@@H]([C@@H](C)CC)C(=O)N1C | Active | Active | Active | 0.01 to 0.3 µg | 0.01 µg | Active | 0.3 µg | > 10 µM
